The OligoGym collection
HELM strings list units from the 5' end as sugar, base in round brackets, then linkage (d deoxyribose, r ribose, m 2'-O-methyl, p phosphodiester). Strings are as the collection lists them; they lack the last nucleoside at the 3' end of the tested compound. [moe] = 2'-O-(2-methoxyethyl) (MOE); [sp] = phosphorothioate linkage; [m5C] = 5-methylcytosine

Target: SCN2A
Assay: mouse, dose not given
Conditions: ASO

Substance	3 h FOB score [score 0-7]
RNA1{[moe](T)[sp].[moe]([m5C])p.[moe](T)p.[moe](G)p.d([m5C])[sp].d(A)[sp].d(T)[sp].d(G)[sp].d(T)[sp].d(A)[sp].d(A)[sp].d([m5C])[sp].d([m5C])[sp].d(T)[sp].[moe](T)p.[moe](T)p.[moe](A)p.[moe](T)[sp].[moe](A)}$$$$ (last 3' nucleoside missing)	1
RNA1{[moe](T)[sp].[moe]([m5C])p.[moe](T)p.[moe](T)p.[moe](T)p.d([m5C])[sp].d(T)[sp].d(T)[sp].d(A)[sp].d(T)[sp].d(T)[sp].d(T)[sp].d([m5C])[sp].d(T)[sp].d(G)[sp].[moe](T)p.[moe](T)p.[moe](T)[sp].[moe]([m5C])}$$$$ (last 3' nucleoside missing)	1.67
RNA1{[moe](T)[sp].[moe]([m5C])p.[moe](T)p.[moe](T)p.d(T)[sp].d([m5C])[sp].d(T)[sp].d(T)[sp].d(A)[sp].d(T)[sp].d(T)[sp].d(T)[sp].d([m5C])[sp].d(T)[sp].[moe](G)p.[moe](T)p.[moe](T)p.[moe](T)[sp].[moe]([m5C])}$$$$ (last 3' nucleoside missing)	0
RNA1{[moe](T)[sp].[moe]([m5C])p.[moe](T)p.[moe]([m5C])p.[moe](T)p.d(T)[sp].d(T)[sp].d([m5C])[sp].d(T)[sp].d(T)[sp].d(A)[sp].d(T)[sp].d(T)[sp].d(T)[sp].d([m5C])[sp].[moe](T)p.[moe](G)p.[moe](T)[sp].[moe](T)}$$$$ (last 3' nucleoside missing)	0
RNA1{[moe](T)[sp].[moe]([m5C])p.[moe](T)p.[moe]([m5C])p.d(T)[sp].d(T)[sp].d(T)[sp].d([m5C])[sp].d(T)[sp].d(T)[sp].d(A)[sp].d(T)[sp].d(T)[sp].d(T)[sp].[moe]([m5C])p.[moe](T)p.[moe](G)p.[moe](T)[sp].[moe](T)}$$$$ (last 3' nucleoside missing)	0
RNA1{[moe](T)[sp].[moe]([m5C])p.[moe]([m5C])p.[moe](A)p.[moe]([m5C])p.[moe](G)p.d(A)[sp].d([m5C])[sp].d(A)[sp].d(T)[sp].d(A)[sp].d(T)[sp].d(T)[sp].d(T)[sp].d(T)[sp].d(T)[sp].[moe]([m5C])p.[moe](T)[sp].[moe](A)}$$$$ (last 3' nucleoside missing)	0
RNA1{[moe](T)[sp].[moe]([m5C])p.[moe]([m5C])p.[moe](A)p.[moe]([m5C])p.d(G)[sp].d(A)[sp].d([m5C])[sp].d(A)[sp].d(T)[sp].d(A)[sp].d(T)[sp].d(T)[sp].d(T)[sp].d(T)[sp].[moe](T)p.[moe]([m5C])p.[moe](T)[sp].[moe](A)}$$$$ (last 3' nucleoside missing)	1.33
RNA1{[moe](T)[sp].[moe]([m5C])p.[moe]([m5C])p.[moe](A)p.d([m5C])[sp].d(G)[sp].d(A)[sp].d([m5C])[sp].d(A)[sp].d(T)[sp].d(A)[sp].d(T)[sp].d(T)[sp].d(T)[sp].[moe](T)p.[moe](T)p.[moe]([m5C])p.[moe](T)[sp].[moe](A)}$$$$ (last 3' nucleoside missing)	0
RNA1{[moe]([m5C])[sp].[moe](A)p.[moe](G)p.[moe](T)p.d(T)[sp].d(T)[sp].d(T)[sp].d(T)[sp].d(T)[sp].d([m5C])[sp].d(A)[sp].d(T)[sp].d(T)[sp].d(G)[sp].[moe]([m5C])p.[moe](A)p.[moe](T)p.[moe]([m5C])[sp].[moe]([m5C])}$$$$ (last 3' nucleoside missing)	2
RNA1{[moe]([m5C])[sp].[moe](A)p.[moe](G)p.[moe]([m5C])p.[moe](A)p.[moe](T)p.d(A)[sp].d(T)[sp].d(T)[sp].d([m5C])[sp].d(T)[sp].d(A)[sp].d(A)[sp].d([m5C])[sp].d(A)[sp].d(T)[sp].[moe](G)p.[moe](G)[sp].[moe](T)}$$$$ (last 3' nucleoside missing)	0
RNA1{[moe]([m5C])[sp].[moe](A)p.[moe](G)p.[moe]([m5C])p.[moe](A)p.[moe](T)p.d(G)[sp].d(T)[sp].d(T)[sp].d(T)[sp].d(A)[sp].d(T)[sp].d([m5C])[sp].d(T)[sp].d(T)[sp].d(A)[sp].[moe](G)p.[moe](T)[sp].[moe](T)}$$$$ (last 3' nucleoside missing)	0
RNA1{[moe]([m5C])[sp].[moe](A)p.[moe](G)p.[moe]([m5C])p.d(A)[sp].d(T)[sp].d(A)[sp].d(T)[sp].d(T)[sp].d([m5C])[sp].d(T)[sp].d(A)[sp].d(A)[sp].d([m5C])[sp].[moe](A)p.[moe](T)p.[moe](G)p.[moe](G)[sp].[moe](T)}$$$$ (last 3' nucleoside missing)	0
RNA1{[moe]([m5C])[sp].[moe](A)p.[moe](G)p.[moe]([m5C])p.d(A)[sp].d(T)[sp].d(G)[sp].d(T)[sp].d(T)[sp].d(T)[sp].d(A)[sp].d(T)[sp].d([m5C])[sp].d(T)[sp].[moe](T)p.[moe](A)p.[moe](G)p.[moe](T)[sp].[moe](T)}$$$$ (last 3' nucleoside missing)	0
RNA1{[moe]([m5C])[sp].[moe](A)p.[moe](T)p.[moe](A)p.[moe](A)p.[moe](T)p.d([m5C])[sp].d([m5C])[sp].d([m5C])[sp].d(A)[sp].d(T)[sp].d(T)[sp].d(A)[sp].d(T)[sp].d(A)[sp].d([m5C])[sp].[moe](A)p.[moe](A)[sp].[moe](A)}$$$$ (last 3' nucleoside missing)	0
RNA1{[moe]([m5C])[sp].[moe](A)p.[moe](T)p.[moe](A)p.[moe](A)p.d(T)[sp].d([m5C])[sp].d([m5C])[sp].d([m5C])[sp].d(A)[sp].d(T)[sp].d(T)[sp].d(A)[sp].d(T)[sp].d(A)[sp].[moe]([m5C])p.[moe](A)p.[moe](A)[sp].[moe](A)}$$$$ (last 3' nucleoside missing)	0
RNA1{[moe]([m5C])[sp].[moe](A)p.[moe](T)p.[moe](A)p.[moe](T)p.d(T)[sp].d(T)[sp].d(T)[sp].d(T)[sp].d([m5C])[sp].d(T)[sp].d(A)[sp].d([m5C])[sp].d(A)[sp].d([m5C])[sp].[moe](T)p.[moe](G)p.[moe]([m5C])[sp].[moe](T)}$$$$ (last 3' nucleoside missing)	2
RNA1{[moe]([m5C])[sp].[moe](A)p.[moe](T)p.[moe](A)p.d(A)[sp].d(T)[sp].d([m5C])[sp].d([m5C])[sp].d([m5C])[sp].d(A)[sp].d(T)[sp].d(T)[sp].d(A)[sp].d(T)[sp].[moe](A)p.[moe]([m5C])p.[moe](A)p.[moe](A)[sp].[moe](A)}$$$$ (last 3' nucleoside missing)	0
RNA1{[moe]([m5C])[sp].[moe](A)p.[moe](T)p.[moe](A)p.d(T)[sp].d(T)[sp].d(T)[sp].d(T)[sp].d(T)[sp].d([m5C])[sp].d(T)[sp].d(A)[sp].d([m5C])[sp].d(A)[sp].[moe]([m5C])p.[moe](T)p.[moe](G)p.[moe]([m5C])[sp].[moe](T)}$$$$ (last 3' nucleoside missing)	2
RNA1{[moe]([m5C])[sp].[moe](A)p.[moe](T)p.[moe](G)[sp].d(T)[sp].d(A)[sp].d(A)[sp].d([m5C])[sp].d([m5C])[sp].d(T)[sp].d(T)[sp].d(T)[sp].[moe](A)p.[moe](T)p.[moe](A)p.[moe]([m5C])[sp].[moe](A)}$$$$ (last 3' nucleoside missing)	0
